Row | melting point | SMILES
1 | 241.5 to 244 °C | CCOC(=O)CCc1nc2nc[nH]c2c2nc(-c3ccc(-c4ccccc4)cc3)nn12 [Example 20, 8-(4-biphenylyl)-5-(2-ethoxycarbonylethyl)-1H-1,2,4-triazolo[5,1-i]purine]
2 | 229 to 231 °C | CSCCc1nc2nc[nH]c2c2nc(-c3ccc(C(C)(C)C)cc3)nn12 [Example 17, 8-(4-t-butylphenyl)-5-(2-methylthioethyl)-1H-1,2,4-triazolo[5,1-i]purine]
3 | 247 to 249 °C | CCOCc1nc2nc[nH]c2c2nc(-c3ccccc3)nn12 [Example 11, 5-ethoxymethyl-8-phenyl-1H-1,2,4-triazolo[5,1-i]purine]
4 | ≥ 280 °C | c1ccc(-c2ccc(-c3nc4c5[nH]cnc5nc(C5CCCCC5)n4n3)cc2)cc1 [Example 45, 8-(4-biphenylyl)-5-cyclohexyl-1H-1,2,4-triazolo[5,1-i]purine]
5 | 284 to 286 °C | CSCc1nc2nc[nH]c2c2nc(-c3ccc(-c4ccccc4)cc3)nn12 [Example 48, 8-(4-biphenylyl)-5-methylthiomethyl-1H-1,2,4-triazolo[5,1-i]purine]
6 | ≥ 201 °C (dec.) | CC(C)(C)c1ccc(-c2nc3c4[nH]cnc4nc(CCS(C)(=O)=O)n3n2)cc1 [Example 43, 8-(4-t-butylphenyl)-5-(2-methylsulfonylethyl)-1H-1,2,4-triazolo[5,1-i]purine]
7 | ≥ 257 °C (dec.) | CSCCc1nc2nc[nH]c2c2nc(-c3ccc(Cl)cc3)nn12 [Example 29, 8-(4-chlorophenyl)-5-(2-methylthioethyl)-1H-1,2,4-triazolo[5,1-i]purine]
8 | ≥ 256 °C (dec.) | COCCc1nc2nc[nH]c2c2nc(-c3ccc(C(F)(F)F)cc3)nn12 [Example 26, 5-(2-methoxyethyl)-8-(4-trifluoromethylphenyl)-1H-1,2,4-triazolo[5,1-i]purine]
9 | 254 to 255.5 °C | CCOCc1nc2nc[nH]c2c2nc(-c3cc(OC)c(OC)c(OC)c3)nn12 [Example 5, 5-ethoxymethyl-8-(3,4,5-trimethoxyphenyl)-1H-1,2,4-triazolo[5,1-i]purine]
10 | 233 to 234 °C | COc1cc(-c2nc3c4[nH]cnc4nc(CCSC)n3n2)cc(OC)c1OC [Example 19, 5-(2-methylthioethyl)-8-(3,4,5-trimethoxyphenyl)-1H-1,2,4-triazolo[5,1-i]purine]
11 | ≥ 280 °C | COCc1nc2nc[nH]c2c2nc(-c3ccccc3)nn12 [Example 12, 5-methoxymethyl-8-phenyl-1H-1,2,4-triazolo[5,1-i]purine]
12 | 169 to 172.5 °C | COC(=O)CCCc1nc2nc[nH]c2c2nc(-c3ccc(C(C)(C)C)cc3)nn12 [Example 23, 8-(4-t-butylphenyl)-5-(3-methoxycarbonylpropyl)-1H-1,2,4-triazolo[5,1-i]purine]
13 | ≥ 110 °C | CCOP(=O)(CCc1nc2nc[nH]c2c2nc(-c3ccc(-c4ccccc4)cc3)nn12)OCC
14 | 262 to 263 °C | CCCOc1ccc(-c2nc3c4[nH]cnc4nc(COCC)n3n2)cc1 [Example 8, 5-ethoxymethyl-8-(4-n-propoxyphenyl)-1H-1,2,4-triazolo[5,1-i]purine]
15 | ≥ 280 °C | COCc1nc2nc[nH]c2c2nc(-c3ccc(C(C)(C)C)cc3)nn12 [Example 15, 8-(4-t-butylphenyl)-5-methoxymethyl-1H-1,2,4-triazolo[5,1-i]purine]
16 | ≥ 280 °C | COCc1nc2nc[nH]c2c2nc(-c3ccc(C(F)(F)F)cc3)nn12 [Example 24, 5-methoxymethyl-8-(4-trifluoromethylphenyl)-1H-1,2,4-triazolo[5,1-i]purine]
17 | 243 to 245.5 °C | COC(=O)CCCc1nc2nc[nH]c2c2nc(-c3ccc(-c4ccccc4)cc3)nn12 [Example 21, 8-(4-biphenylyl)-5-(3-methoxycarbonylpropyl)-1H-1,2,4-triazolo[5,1-i]purine]
18 | 241 to 243 °C | CCOC(=O)CCCCc1nc2nc[nH]c2c2nc(-c3ccc(-c4ccccc4)cc3)nn12 [Example 22, 8-(4-biphenylyl)-5-(4-ethoxycarbonylbutyl)-1H-1,2,4-triazolo[5,1-i]purine]
19 | 284 to 286 °C (dec.) | CN(C)Cc1nc2nc[nH]c2c2nc(-c3ccc(-c4ccccc4)cc3)nn12 [Example 54, 8-(4-biphenylyl)-5-dimethylaminomethyl-1H-1,2,4-triazolo[5,1-i]purine]
20 | ≥ 246 °C (dec.) | C[S+]([O-])Cc1nc2nc[nH]c2c2nc(-c3ccc(-c4ccccc4)cc3)nn12 (stereo not shown) [Example 60, 8-(4-biphenylyl)-5-methylsulfinylmethyl-1H-1,2,4-triazolo[5,1-i]purine]
21 | 243 to 244 °C | CCOCc1nc2nc[nH]c2c2nc(-c3ccc(C(C)(C)C)cc3)nn12 [Example 14, 8-(4-t-butylphenyl)-5-ethoxymethyl-1H-1,2,4-triazolo[5,1-i]purine]
22 | 228 to 230 °C | COC(=O)CCCc1nc2nc[nH]c2c2nc(-c3ccccc3)nn12 [Example 18, 5-(3-methoxycarbonylpropyl)-8-phenyl-1H-1,2,4-triazolo[5,1-i]purine]
23 | ≥ 280 °C | CCCOc1ccc(-c2nc3c4[nH]cnc4nc(COC)n3n2)cc1 [Example 9, 5-methoxymethyl-8-(4-n-propoxyphenyl)-1H-1,2,4-triazolo[5,1-i]purine]

Row | melting point | SMILES
24 | 264 to 266 °C | CCSCc1nc2nc[nH]c2c2nc(-c3ccc(-c4ccccc4)cc3)nn12 [Example 49, 8-(4-biphenylyl)-5-ethylthiomethyl-1H-1,2,4-triazolo[5,1-i]purine]
25 | 205 to 207 °C | c1ccc(COCCCCc2nc3nc[nH]c3c3nc(-c4ccc(-c5ccccc5)cc4)nn23)cc1 [Example 57, 5-(4-benzyloxybutyl)-8-(4-biphenylyl)-1H-1,2,4-triazolo[5,1-i]purine]
26 | 274 to 277 °C | CCOP(=O)(O)Cc1nc2nc[nH]c2c2nc(-c3ccc(-c4ccccc4)cc3)nn12
27 | 217.5 to 218.5 °C | COCCc1nc2nc[nH]c2c2nc(-c3ccccc3)nn12 (hydrate or solvate) [Example 13, 5-(2-methoxyethyl)-8-phenyl-1H-1,2,4-triazolo[5,1-i]purine]
28 | 175 to 178 °C | CCOP(=O)(CCCc1nc2nc[nH]c2c2nc(-c3ccc(-c4ccccc4)cc3)nn12)OCC
29 | 237 to 239 °C | COCCc1nc2nc[nH]c2c2nc(-c3ccc(C(C)(C)C)cc3)nn12 [Example 16, 8-(4-t-butylphenyl)-5-(2-methoxyethyl)-1H-1,2,4-triazolo[5,1-i]purine]
30 | ≥ 278 °C (dec.) | COCCc1nc2nc[nH]c2c2nc(-c3ccc(Cl)cc3)nn12 [Example 28, 8-(4-chlorophenyl)-5-(2-methoxyethyl)-1H-1,2,4-triazolo[5,1-i]purine]
31 | ≥ 162 °C (dec.) | C[S+]([O-])CCc1nc2nc[nH]c2c2nc(-c3ccc(C(C)(C)C)cc3)nn12 (stereo not shown) [Example 39, 8-(4-t-butylphenyl)-5-(2-methylsulfinylethyl)-1H-1,2,4-triazolo[5,1-i]purine]
32 | 196 to 198 °C | CCOP(=O)(Cc1nc2nc[nH]c2c2nc(-c3ccc(C(F)(F)F)cc3)nn12)OCC
33 | ≥ 244 °C (dec.) | CS(=O)(=O)CCc1nc2nc[nH]c2c2nc(-c3ccc(Cl)cc3)nn12 [Example 42, 8-(4-chlorophenyl)-5-(2-methylsulfonylethyl)-1H-1,2,4-triazolo[5,1-i]purine]
34 | ≥ 280 °C | FC(F)(F)c1nc2nc[nH]c2c2nc(-c3ccc(-c4ccccc4)cc3)nn12 [Example 47, 8-(4-biphenylyl)-5-trifluoromethyl-1H-1,2,4-triazolo[5,1-i]purine]
35 | ≥ 234 °C (dec.) | C[S+]([O-])CCc1nc2nc[nH]c2c2nc(-c3ccc(-c4ccccc4)cc3)nn12 (stereo not shown) [Example 61, 8-(4-biphenylyl)-5-(2-methylsulfinylethyl)-1H-1,2,4-triazolo[5,1-i]purine]
36 | 162 to 166 °C | CCOP(=O)(Cc1nc2nc[nH]c2c2nc(-c3ccc(C(C)(C)C)cc3)nn12)OCC
37 | ≥ 218 °C (dec.) | C[S+]([O-])CCc1nc2nc[nH]c2c2nc(-c3ccc(Cl)cc3)nn12 (stereo not shown) [Example 38, 8-(4-chlorophenyl)-5-(2-methylsulfinylethyl)-1H-1,2,4-triazolo[5,1-i]purine]
38 | 261 to 262.5 °C | COC(=O)CCCc1nc2nc[nH]c2c2nc(-c3ccc(Cl)cc3)nn12 [Example 30, 8-(4-chlorophenyl)-5-(3-methoxycarbonylpropyl)-1H-1,2,4-triazolo[5,1-i]purine]
39 | 268 to 270 °C | CCOP(=O)(O)Cc1nc2nc[nH]c2c2nc(-c3ccc(C(F)(F)F)cc3)nn12
40 | ≥ 280 °C | c1ccc(-c2ccc(-c3nc4c5[nH]cnc5nc(C5CCCC5)n4n3)cc2)cc1 [Example 46, 8-(4-biphenylyl)-5-cyclopentyl-1H-1,2,4-triazolo[5,1-i]purine]
41 | 237 to 238 °C | c1ccc(COCCCc2nc3nc[nH]c3c3nc(-c4ccc(-c5ccccc5)cc4)nn23)cc1 [Example 56, 5-(3-benzyloxypropyl)-8-(4-biphenylyl)-1H-1,2,4-triazolo[5,1-i]purine]
42 | 227 to 230 °C (dec.) | CN(C)CCCc1nc2nc[nH]c2c2nc(-c3ccc(-c4ccccc4)cc3)nn12 [Example 55, 8-(4-biphenylyl)-5-(3-dimethylaminopropyl)-1H-1,2,4-triazolo[5,1-i]purine]
43 | ≥ 280 °C | COCc1nc2nc[nH]c2c2nc(-c3ccc(-c4ccccc4)cc3)nn12 [Example 2, 8-(4-biphenylyl)-5-methoxymethyl-1H-1,2,4-triazolo[5,1-i]purine]
44 | 231.5 to 232.5 °C | CCCOc1ccc(-c2nc3c4[nH]cnc4nc(CCOC)n3n2)cc1 [Example 10, 5-(2-methoxyethyl)-8-(4-n-propoxyphenyl)-1H-1,2,4-triazolo[5,1-i]purine]
45 | 188 to 192 °C | CCOP(=O)(Cc1nc2nc[nH]c2c2nc(-c3ccc(-c4ccccc4)cc3)nn12)OCC

Row | SMILES | melting point
46 | CC(=O)OCc1nc2nc[nH]c2c2nc(-c3ccc(-c4ccccc4)cc3)nn12 [Example 52, 8-(4-biphenylyl)-5-acetoxymethyl-1H-1,2,4-triazolo[5,1-i]purine] | 233 to 235 °C
